This data set is described as follows: method code SF-AS, from DOI: 10.1016/0165-022x(96)00008-5, PMID: 8844325.

What is called logP is the decadic logarithm of the partition coefficient of the neutral form, usually between octanol and water. Low readings indicate a more hydrophilic compound, high ones a more lipophilic compound. With `CC(C)(C)[N+]([O-])=Cc1ccc([N+](=O)[O-])cc1`, the logP amounted to 1.39.

On to `CC(C)(C)[N+]([O-])=Cc1ccccc1Br`, for which the logP worked out at 2.52.

`COc1cccc(C=[N+]([O-])C(C)(C)C)c1` showed a logP of 1.41.

`CC(C)(C)[N+]([O-])=Cc1ccc(Cl)cc1` registered a logP of 2.39.

With `COc1cc(OC)c(C=[N+]([O-])C(C)(C)C)c(OC)c1`, the logP stood at 1.19.

In the case of `CC(C)(C)[N+]([O-])=Cc1ccc(C#N)cc1`, the logP amounted to 0.52.

Consider `CC(C)(C)[N+]([O-])=Cc1ccc(Br)cc1`, for which the logP is 1.98.

With `CC(C)(C)[N+]([O-])=Cc1ccc(C(=O)O)cc1`, the lipophilicity (logP) came to 1.05.

Consider `CC(C)(C)[N+]([O-])=Cc1ccccc1O`, for which the logP was 1.31.

Consider `CC(C)(C)[N+]([O-])=Cc1cc[n+]([O-])cc1`, for which the logP is -0.82.

In turn, `CC(C)(C)[N+]([O-])=Cc1cccc(O)c1` displayed a logP of 1.

For the compound `Cc1ccccc1C=[N+]([O-])C(C)(C)C`, the logP is 1.53.

`CC1(C)CCC(c2ccccc2)=[N+]1[O-]`: the log partition coefficient (logP) is 1.03.

Take `CC1(C)CCC(C(F)(F)F)=[N+]1[O-]`: the logP was determined as 0.2.

Take `CC(C)(C)[N+]([O-])=Cc1ccc(O)cc1`: the log partition coefficient (logP) was found to be 0.58.

As to `CC1(C)C=[N+]([O-])C(C)(C)C1`, the logP was -0.15.

`CC(C)(C)[N+]([O-])=Cc1ccccc1[N+](=O)[O-]` gave a logP of 0.84.

Turning to `Cc1cccc(C=[N+]([O-])C(C)(C)C)c1`, the log partition coefficient (logP) was found to be 1.58.

As for `CC(C)(C)[N+]([O-])=Cc1cccc([N+](=O)[O-])c1`, the logP was found to be 1.3.

For the compound `CC(C)(C)[N+]([O-])=Cc1ccncc1`, the logP came out at 0.4.

(Values after the SangsterLogP compilation.)
